# Data: PubChem BioAssay (NCI)
# Where “and” joins values, the source holds several entries; their conditions need not be identical. Equal values may be shown once.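 Grown in 96-well plates, cells were treated for 48 hours with each compound at five concentrations. Insufficient inhibition: endpoint recorded as highest concentration tested. GI50 is the concentration that inhibits growth by half. TGI denotes the concentration required for complete inhibition of growth.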
# Tested on: SK-MEL-28 melanoma
# Experiment: NCI tumour cell line growth inhibition, 48 h
SMILES,TGI [µM],GI50 [µM]
Cc1ccc(Cl)c2c(N=Nc3ccccc3[N+](=O)[O-])c(O)[nH]c12,> 100,
C=CCOc1ccc2c(C)cc(=O)oc2c1C,> 100,
Nc1c(C(=O)c2cccc(CCS(N)(=O)=O)c2)cnn1-c1ccc(F)cc1,> 25,> 25
OCc1cc2ccccc2c2c3c(ccc12)OCO3,350,35.3
CCOC1Oc2ccccc2C(=O)/C1=C/Nc1ccc(C(C)=O)cc1 (stereo unspecified),> 100,44.8
CCN1CCN(Cc2ccc(NC(=O)c3cccc(C#Cc4cccc5[nH]nc(N)c45)c3)cc2C(F)(F)F)CC1,1.78,0.568
CC(C)=CCC\C(C)=C/C=C/C(C)=C\C=C\C(C)=C/C=C/C=C(C)\C=C\C=C(C)/C=C/C=C(/C)CCC=C(C)C,> 100,
CCN(CC)N=Nc1c(C(N)=O)n[nH]c1C,> 100,
O=C1NC(=NCCc2cccc(F)c2)S/C1=C\c1ccc2ncccc2c1,> 25,> 21.4
CCOC(=O)Cn1c(C(F)(F)F)nc2nc(Cl)c(Cl)nc21,> 100,
COC1/C=C/OC2(C)Oc3c(C)c(O)c4c(O)c(c(/C=N/Nc5ccc([N+](=O)[O-])cc5[N+](=O)[O-])c(O)c4c3C2=O)NC(=O)C(C)=C/C=C/C(C)C(O)C(C)C(O)C(C)C(OC(C)=O)C1C (stereo unspecified),5.23,1.45

# Tested on: U251 CNS
# Experiment: NCI tumour cell line growth inhibition, 48 h
SMILES,GI50,TGI
CN(C)c1ccc(/C=C\C2=[N+](C)c3ccccc3C2(C)C)cc1,0.233 µM,17.4 µM
Nc1nc(-n2c(-c3ccccc3)nc3c(Br)cc(Br)cc3c2=O)nnc1-c1cccc(Cl)c1Cl,6.87 µM,27.1 µM
C[N+](C)(C)CC(=O)N/N=C(/CC(=O)CC(C1=C(O)c2ccccc2OC1)c1ccccc1)C(=O)Nc1cccc(Cl)c1 (stereo unspecified),,> 100 µM
O=C1/C(=C/c2ccc(O)c(O)c2)CCC/C1=C\c1ccc(O)c(O)c1,,15.7 µM
COC(=O)/C=C1\S/C(=N\NC(=O)c2cc3ccc2/C=C\c2ccc(cc2)/C=C\3)N(c2ccccc2)C1=O,1.89 µM,4 µM
COC([CH2][Hg][n]1cnc2c1c(=O)n(C)c(=O)n2C)CN1C(=O)c2ccccc2S1(=O)=O (stereo unspecified),> 100 µM,> 100 µM
COc1ccc(CC2c3cc4c(cc3CCN2C)OCO4)c(C=O)c1OC (stereo unspecified),,> 100 µM
C=C(C)C(OC)C(O)CC1(C)CC(O)CC(C)(C2CCC3OC(C4(C)CCC(Br)C(C)(C)O4)CCC3(C)O2)O1 (stereo unspecified),25.5 µM,> 61.9 µM
Cc1cc(-c2nc(C(=O)Nc3cc4oc(N5CCOCC5)nc4nc3N3CC[C@@H](O)C3)co2)ccn1,74.3 µM,> 100 µM
COc1cc2c(cc1OCCCCN1CCN(CC(=O)Nc3ccc(Cl)cc3C(=O)c3ccccc3Cl)CC1)N=CC1CCCN1C2=O (stereo unspecified),0.327 µM,1.06 µM
Cc1ccc(Cl)c2c(N=Nc3ccccc3[N+](=O)[O-])c(O)[nH]c12,,> 100 µM
C=CCOc1ccc2c(C)cc(=O)oc2c1C,,> 100 µM
Nc1c(C(=O)c2cccc(CCS(N)(=O)=O)c2)cnn1-c1ccc(F)cc1,> 25 µM,> 25 µM
OCc1cc2ccccc2c2c3c(ccc12)OCO3,28.6 µM,141 µM
C[C@@H](Oc1cc(-n2cnc3ccc(CN4CCN(C)CC4)cc32)sc1C(N)=O)c1ccccc1C(F)(F)F,< 0.0137 µM and 0.0255 µM,15.6 µM and > 10 µM
CCOC1Oc2ccccc2C(=O)/C1=C/Nc1ccc(C(C)=O)cc1 (stereo unspecified),23.9 µM,67.5 µM
CCN(CC)N=Nc1c(C(N)=O)n[nH]c1C,,> 100 µM
O=C1NC(=NCCc2cccc(F)c2)S/C1=C\c1ccc2ncccc2c1,1.46 µM,> 25 µM
CCOC(=O)Cn1c(C(F)(F)F)nc2nc(Cl)c(Cl)nc21,,> 100 µM
COC1/C=C/OC2(C)Oc3c(C)c(O)c4c(O)c(c(/C=N/Nc5ccc([N+](=O)[O-])cc5[N+](=O)[O-])c(O)c4c3C2=O)NC(=O)C(C)=C/C=C/C(C)C(O)C(C)C(O)C(C)C(OC(C)=O)C1C (stereo unspecified),1.3 µM,3.55 µM

# Tested on: MALME-3M melanoma
# Experiment: NCI tumour cell line growth inhibition, 48 h
SMILES,GI50,TGI
CN(C)c1ccc(/C=C\C2=[N+](C)c3ccccc3C2(C)C)cc1,0.456 µM,16.5 µM
O=C1/C(=C/c2ccc(O)c(O)c2)CCC/C1=C\c1ccc(O)c(O)c1,,7.05 µM
COC(=O)/C=C1\S/C(=N\NC(=O)c2cc3ccc2/C=C\c2ccc(cc2)/C=C\3)N(c2ccccc2)C1=O,3.27 µM,21.4 µM
COC([CH2][Hg][n]1cnc2c1c(=O)n(C)c(=O)n2C)CN1C(=O)c2ccccc2S1(=O)=O (stereo unspecified),> 100 µM,> 100 µM
COc1ccc(CC2c3cc4c(cc3CCN2C)OCO4)c(C=O)c1OC (stereo unspecified),,> 100 µM
C=C(C)C(OC)C(O)CC1(C)CC(O)CC(C)(C2CCC3OC(C4(C)CCC(Br)C(C)(C)O4)CCC3(C)O2)O1 (stereo unspecified),14.9 µM,32.5 µM
Cc1cc(-c2nc(C(=O)Nc3cc4oc(N5CCOCC5)nc4nc3N3CC[C@@H](O)C3)co2)ccn1,29.1 µM,> 100 µM
COc1cc2c(cc1OCCCCN1CCN(CC(=O)Nc3ccc(Cl)cc3C(=O)c3ccccc3Cl)CC1)N=CC1CCCN1C2=O (stereo unspecified),0.186 µM,0.346 µM
Cc1ccc(Cl)c2c(N=Nc3ccccc3[N+](=O)[O-])c(O)[nH]c12,,> 100 µM
C=CCOc1ccc2c(C)cc(=O)oc2c1C,,> 100 µM
Nc1c(C(=O)c2cccc(CCS(N)(=O)=O)c2)cnn1-c1ccc(F)cc1,> 25 µM,> 25 µM
OCc1cc2ccccc2c2c3c(ccc12)OCO3,48.1 µM,209 µM
C[C@@H](Oc1cc(-n2cnc3ccc(CN4CCN(C)CC4)cc32)sc1C(N)=O)c1ccccc1C(F)(F)F,2.81 µM and 2.77 µM,7.62 µM and > 6.99 µM
CCN1CCN(Cc2ccc(NC(=O)c3cccc(C#Cc4cccc5[nH]nc(N)c45)c3)cc2C(F)(F)F)CC1,0.0273 µM,0.422 µM
CC(C)=CCC\C(C)=C/C=C/C(C)=C\C=C\C(C)=C/C=C/C=C(C)\C=C\C=C(C)/C=C/C=C(/C)CCC=C(C)C,,> 100 µM
CCN(CC)N=Nc1c(C(N)=O)n[nH]c1C,,> 100 µM
O=C1NC(=NCCc2cccc(F)c2)S/C1=C\c1ccc2ncccc2c1,17.2 µM,> 25 µM
CCOC(=O)Cn1c(C(F)(F)F)nc2nc(Cl)c(Cl)nc21,,> 100 µM
COC1/C=C/OC2(C)Oc3c(C)c(O)c4c(O)c(c(/C=N/Nc5ccc([N+](=O)[O-])cc5[N+](=O)[O-])c(O)c4c3C2=O)NC(=O)C(C)=C/C=C/C(C)C(O)C(C)C(O)C(C)C(OC(C)=O)C1C (stereo unspecified),1.21 µM,6.13 µM
